These results are taken from patent US9309275B2, “3′-deoxy nucleosides for the treatment of HCV” (Idenix Pharmaceuticals, Inc., priority 2013, dated 2016).

One may read the pEC50 as the negative decadic logarithm of the EC50, by convention in mol/L. The CC50 is the concentration that lowers cell viability or growth by half. As a reminder, the pIC50 is the negative decadic logarithm of the IC50, by convention in mol/L.

For data set [1], the system named is HCV genotype 1b replicon. The data set can be described thus: HCV replicon assay (Zluc luciferase reporter). Type of data set: cell-based. Here is the method:
Huh-7-derived cell line (Zluc) that harbors an HCV genotype 1b replicon and a luciferase reporter gene was grown in Dulbecco's Modified Eagle Medium (DMEM) supplemented with 10% fetal bovine serum, 2 mM GlutaMAX, 1% MEM nonessential amino acids, 100 IU/mL penicillin, 100 μg/mL streptomycin, and 0.5 mg/mL Geneticin® (G418). For dose response testing the cells were seeded in 96-well plates at 7.5×10^3 cells per well in a volume of 50 μL, and incubated at 37° C./5% CO2. Drug solutions were made up freshly in Huh-7 media as 2× stocks. Ten additional 5-fold dilutions were prepared from these stocks in DMEM without G418. At least three hours after Zluc cells were seeded, drug treatment was initiated by adding 50 μL of drug dilutions to the plates in duplicate. Final concentrations of drug ranged from 100 μM to […]. Cells were then incubated at 37° C./5% CO2. Alternatively, compounds were tested at two concentrations (1 μM and 10 μM). […] For this, media was removed from the plates via gentle tapping. Fifty microliters of ONE-glo luciferase assay reagent was added to each well. The plates were shaken gently for 3 min at room temperature and luminescence was measured on a Victor^3 V 1420 multilabel counter (Perkin Elmer) with a 1 second read time using a 700 nm cut-off filter. The EC50 values were calculated from dose response curves from the resulting best-fit equations determined by Microsoft Excel and XLfit 4.1 software. When screening at two fixed concentrations, the results were expressed as % inhibition at 1 μM and 10 μM.
In general terms: A replicon is a self-replicating genome or part of one, used to study replication in cells.

The nature of data set [2]: Cytotoxicity evaluation, CellTiter-Blue Cell Viability Assay. The class given is cell-based. To be noted: human. On the procedure:
(§1) For cytotoxicity evaluation, Zluc cells were treated with test compound as described herein, and cell viability was monitored using the CellTiter-Blue Cell Viability Assay (Promega) by adding 20 μL of the assay solution to each well. The plates were then incubated at 37° C./5% CO2 for at least 3 hours.
A general note: The colour change of resazurin is a common sign of viable cells or microbes.

The test system of data set [3] is Zluc cells. Described as above. The class given is cell-based. To be noted: read-out: HCV Replicon CC50. Here is the method:
as §1

The target of data set [4] is T1, wild-type HCV genotype 1b NS5B protein (Hepatitis C virus genotype 1b, UniProt Q9WMX2).
T1 construct: HCV genotype 1b NS5B protein were used to generate recombinant HCV polymerases (with a deletion of the 21 carboxy terminal amino acids); made in house
The data set can be described thus: HCV polymerase enzyme assay, wild-type. Type of data set: biochemical. The text has this: (§2) Test compounds in the form of nucleoside triphosphates were examined for inhibitory activity against purified HCV polymerase in a standard assay. Bacterial expression constructs encoding the approximately 65 kDa HCV genotype 1b NS5B protein were used to generate recombinant HCV polymerases (with a deletion of the 21 carboxy terminal amino acids). Both the wild-type genotype 1b protein and protein containing the S282T mutation were expressed and purified for use in the enzymatic activity assay.
(§3) The enzymatic activity assay measured the inhibitory effect of increasing concentrations of test compound on the incorporation of α-[^33P]-labeled nucleotide into trichloroacetic acid-precipitable material. Recombinant polymerase and synthetic RNA template were combined in reaction buffer containing ribonucleoside triphosphates, α-[^33P]-labeled nucleotide and eight concentrations of test compound in three-fold dilutions. […]
(§4) Reactions were terminated by the addition of ice-cold trichloroacetic acid and sodium pyrophosphate to promote precipitation of newly-synthesized ribonucleic acid. Precipitable material from the reactions was collected by filtration onto 96-well filter plates, washed extensively with water, and quantified by liquid scintillation.
(§5) The inhibitory activity of test compounds was determined by fitting results to dose-response curves using XLfit software.

In data set [5] the target is T2, HCV genotype 1b NS5B protein containing the S282T mutation (Hepatitis C virus genotype 1b, UniProt Q9WMX2, S2701T).
T2 construct: HCV genotype 1b NS5B protein were used to generate recombinant HCV polymerases (with a deletion of the 21 carboxy terminal amino acids); made in house
The data set can be described thus: HCV polymerase enzyme assay, S282T mutant. To be noted: purified recombinant genotype 1b NS5B with S282T mutation; compounds tested as nucleoside triphosphates. Type of data set: biochemical.
Excerpt: as §2, §3, §4, §5

The mark [6] stands for this setting: read-out: HCV Replicon EC50, Huh-7-derived Zluc cells, 72 hours of incubation.
Setting [7] is: Zluc cells, read-out: HCV Replicon CC50.
Where [8] appears, read: Hepatitis C virus, 72 h, Huh-7-derived Zluc cells, 72 hours of incubation, read-out: HCV Replicon EC50.
Where [9] appears, read: Huh-7-derived Zluc cells, 72 hours of incubation, read-out: HCV Replicon EC50.
The mark [10] stands for this setting: Zluc cells (HCV replicon cells).

Structures are written as SMILES. pEC50, pIC50: −log10 of the molar value. Read-outs that look alike come from different tables or passages of the source.

For `CC(C)OC(=O)[C@H](C)NP(=O)(OC[C@@H]1C[C@@](C)(F)[C@H](n2cnc3c(=O)[nH]c(N)nc32)O1)Oc1ccccc1` (single isomer, unassigned) [1b Diastereomer 1], in data set [1] (setting [6]), the pEC50 was 5.00 to 6.00. Also, the CC50 at 72 h in data set [2] (setting [7]) was over 50 µM.
Turning to `CCOc1nc(N)nc2c1ncn2[C@@H]1O[C@H](COP(=O)(N[C@H](C)C(=O)OC(C)C)Oc2ccccc2)C[C@@]1(C)F` (single isomer, unassigned) [2a Diastereomer 1], the negative-log EC50 (pEC50) in data set [1] (setting [8]) is under 5.00. In addition, the CC50 at 72 h in data set [2] (setting [7]) is over 50 µM.
On to `CCOc1nc(N)nc2c1ncn2[C@@H]1O[C@H](COP(=O)(N[C@@H](C)C(=O)OC(C)C)Oc2ccccc2)C[C@@]1(C)F` (single isomer, unassigned) [2b Diastereomer 1], for which the negative logarithm of the EC50 (pEC50) in data set [1] (setting [9]) is under 5.00. Moreover, the CC50 at 72 h in data set [2] (setting [7]) is over 50 µM.
`CCOc1nc(N)nc2c1ncn2[C@@H]1O[C@H](COP(=O)(N[C@@H](C)C(=O)OC(C)C)Oc2ccccc2)C[C@@]1(C)F` (single isomer, unassigned) [2b Diastereomer 2]: the negative-log EC50 (pEC50) in data set [1] (setting [9]) is 5.00 to 6.00. Besides, the CC50 in data set [3] was over 50 µM.
Take `CC(C)OC(=O)[C@H](C)NP(=O)(OC[C@@H]1C[C@@](C)(F)[C@H](n2ccc(N)nc2=O)O1)Oc1ccccc1` (single isomer, unassigned) [3b Diastereomer 1]: the negative logarithm of the EC50 (pEC50) in data set [1] (setting [8]) is under 5.00. Besides, in data set [2] (setting [7]), the CC50 at 72 h is over 50 µM.
As for `CC(C)OC(=O)[C@H](C)NP(=O)(OC[C@@H]1C[C@@](C)(F)[C@H](n2ccc(=O)[nH]c2=O)O1)Oc1ccccc1` (single isomer, unassigned) [4b Diastereomer 1], in data set [1] (setting [9]), the negative-log EC50 (pEC50) was 6.00 to 6.60. In data set [2] (setting [7]), the half-maximal cytotoxic concentration (CC50) at 72 h was over 50 µM.
For `CC(C)OC(=O)[C@H](C)NP(=O)(OC[C@@H]1C[C@@](C)(F)[C@H](n2ccc(=O)[nH]c2=O)O1)Oc1ccccc1` (single isomer, unassigned) [4b Diastereomer 2], in data set [1] (setting [9]), the pEC50 was 5.00 to 6.00. For the same compound, the CC50 in data set [3] is over 50 µM.
`CC(C)OC(=O)[C@H](C)NP(=O)(OC[C@@H]1C[C@@](C)(F)[C@H](n2cnc3c(=O)[nH]c(N)nc32)O1)Oc1ccccc1` (single isomer, unassigned) [lb Diastereomer 2]: in data set [1] (setting [6]), the pEC50 was under 5.00. For the same compound, the 50% cytotoxic concentration (CC50) in data set [3] is over 50 µM.
Take `C[C@@]1(F)C[C@@H](COP(=O)(O)OP(=O)(O)OP(=O)(O)O)O[C@H]1n1cnc2c(=O)[nH]c(N)nc21` [Compound 101]: the pIC50 was over 6.60 in data set [4] and 5.00 to 6.00 in data set [5].
Turning to `C[C@@]1(F)C[C@@H](COP(=O)(O)OP(=O)(O)OP(=O)(O)O)O[C@H]1n1ccc(=O)[nH]c1=O` [Compound 102], the results for the negative logarithm of the IC50 (pIC50) in data set [4] and in data set [5] were 5.00 to 6.00 and under 5.00, respectively.
For the compound `C[C@@]1(F)C[C@@H](CO)O[C@H]1n1cnc2c(=O)[nH]c(N)nc21` [Compound 201], the negative-log EC50 (pEC50) in data set [1] (setting [8]) is under 5.00. The CC50 at 72 h in data set [2] (setting [10]) is over 50 µM.
For `C[C@@]1(F)C[C@@H](CO)O[C@H]1n1ccc(=O)[nH]c1=O` [Compound 202] the same measures were under 5.00 and over 50 µM.
